This test has as its target Calcitonin gene-related peptide type 1 receptor/Receptor activity-modifying protein 1 (Homo sapiens, UniProt Q16602+O60894). The test is described as follows: Displacement of [125I]-hCGRP from human CALCRL/RAMP1 expressed in HEK293 cell membranes.

The Ki is a measure of affinity in units of concentration, obtained from inhibition or displacement.

Sequence of Calcitonin gene-related peptide type 1 receptor/Receptor activity-modifying protein 1 (Q16602 whole entry): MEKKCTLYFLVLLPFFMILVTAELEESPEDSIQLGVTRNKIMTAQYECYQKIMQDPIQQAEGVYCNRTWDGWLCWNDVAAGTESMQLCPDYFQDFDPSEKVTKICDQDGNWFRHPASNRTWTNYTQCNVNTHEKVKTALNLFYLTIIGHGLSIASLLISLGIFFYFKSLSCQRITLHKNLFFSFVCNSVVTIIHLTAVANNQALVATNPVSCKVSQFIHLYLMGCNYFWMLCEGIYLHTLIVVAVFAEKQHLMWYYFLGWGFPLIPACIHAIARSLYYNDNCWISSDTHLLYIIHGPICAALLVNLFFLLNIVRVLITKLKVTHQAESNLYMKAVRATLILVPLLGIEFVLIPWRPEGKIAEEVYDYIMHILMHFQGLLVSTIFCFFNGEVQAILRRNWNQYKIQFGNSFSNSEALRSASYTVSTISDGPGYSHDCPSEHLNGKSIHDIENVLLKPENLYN
Sequence of Calcitonin gene-related peptide type 1 receptor/Receptor activity-modifying protein 1 (O60894 whole entry): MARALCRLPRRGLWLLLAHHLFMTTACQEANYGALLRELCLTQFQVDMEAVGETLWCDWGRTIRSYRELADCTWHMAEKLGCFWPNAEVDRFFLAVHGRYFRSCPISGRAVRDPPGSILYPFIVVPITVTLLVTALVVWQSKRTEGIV

`C[C@H](c1cc(F)cc(F)c1)N(C/C=C/c1cnc2c(c1)C[C@@]1(C2)C(=O)Nc2ncccc21)C(=O)C1(C(F)(F)F)CC1` [US8552023, 11]: the Ki was 0.05 nM.

As to `Cc1ccc([C@@H](C)N(C/C=C/c2cnc3c(c2)C[C@@]2(C3)C(=O)Nc3ncccc32)C(=O)C(C)(C)C)cc1F` [US8552023, 13], the inhibitory constant (Ki) is 0.13 nM.

(Values after BindingDB's records for doi:10.1016/j.bmcl.2013.11.027 (Merck, 2013).)
